Reference: PubChem BioAssay (NCI)
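Growth conditions: 96-well plates. Treatment: test compound, 48 hours, 5 concentrations. Analysis: linear interpolation between bracketing concentrations; unreached endpoints set to highest concentration. The concentration for full growth arrest is given as TGI.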

Legend:
Assay in all cases: NCI anticancer screen, dose series, 48 h
[1] = tested on: SNB-19 CNS
[2] = tested on: RPMI-8226 leukemia
[3] = tested on: OVCAR-4 ovarian
[4] = tested on: SW-620 colon
[5] = tested on: SK-MEL-28 melanoma
[6] = tested on: SK-OV-3 ovarian
[7] = tested on: NCI-H522 lung
[8] = tested on: U251 CNS
[9] = tested on: KM20L2 colon
[10] = tested on: OVCAR-5 ovarian
[11] = tested on: IGROV1 ovarian
[12] = tested on: 786-0 renal
[13] = tested on: HCT-15 colon
[14] = tested on: UACC-257 melanoma
[15] = tested on: SR leukemia
[16] = tested on: M19-MEL melanoma
[17] = tested on: ACHN renal
[18] = tested on: K-562 leukemia
[19] = tested on: EKVX NSCLC
[20] = tested on: DMS 114 small cell lung
[21] = tested on: HOP-92 NSCLC
[22] = tested on: HOP-62 NSCLC
[23] = tested on: XF 498 CNS
[24] = tested on: SF-268 CNS
[25] = tested on: SF-295 CNS
[26] = tested on: HCC-2998 colon
[27] = tested on: SK-MEL-2 melanoma
[28] = tested on: M14 melanoma
[29] = tested on: TK-10 renal
[30] = tested on: HT29 colon
[31] = tested on: NCI-H226 lung
[32] = tested on: DMS 273 small cell lung
[33] = tested on: OVCAR-3 ovarian
[34] = tested on: A549 NSCLC
[35] = tested on: COLO 205 colon
[36] = tested on: MOLT-4 leukemia
[37] = tested on: KM12 colon
[38] = tested on: CCRF-CEM leukemia
[39] = tested on: LXFL 529 NSCLC
[40] = tested on: UACC-62 melanoma
[41] = tested on: SN12C renal
[42] = tested on: SNB-78 CNS
[43] = tested on: UO-31 renal
[44] = tested on: CAKI-1 renal
[45] = tested on: NCI-H23 lung
[46] = tested on: A498 renal
[47] = tested on: HCT-116 colon
[48] = tested on: SK-MEL-5 melanoma
[49] = tested on: MALME-3M melanoma
[50] = tested on: NCI-H460 lung
[51] = tested on: SF-539 CNS
[52] = tested on: LOX IMVI melanoma
[53] = tested on: OVCAR-8 ovarian
[54] = tested on: HL-60(TB) leukemia
[55] = tested on: DLD-1 colon
[56] = tested on: RXF 393 renal
[57] = tested on: SNB-75 CNS
[58] = tested on: HOP-18 NSCLC

Measured: TGI

COc1cccc(C2CC23C(=O)NC(=O)NC3=O)c1 (stereo not drawn)
not listed: [55] | [56] | [57] | [58]
> 100 µM: all other assays above

CC(C)(C)[Si](C)(C)OC1C(=O)C[C@H]2CCCC[C@@H]12 (stereo partly drawn)
not listed: [5] | [7] | [15] | [31]
> 100 µM: all other assays above
